Values quoted from earlier work in EP3653214A1, “IMPROVED DOSAGE REGIMEN FOR URSODEOXYCHOLIC ACID BASED ON ALKALINE PHOSPHATASE LEVELS IN THE TREATMENT OF CHRONIC CHOLESTATIC LIVER DISEASES” (Disphar International B.V., priority 2018, dated 2020).

Settings: in vivo

In the case of `C[C@H](CCC(=O)O)[C@H]1CC[C@H]2[C@@H]3[C@@H](O)C[C@@H]4C[C@H](O)CC[C@]4(C)[C@H]3CC[C@]12C` [UDCA, ursodeoxycholic acid], the tolerability is given as “generally well tolerated”.
